In patent publication US20260265222A1, “1H-PYRROLE-2-AMIDE DERIVATIVE, PHARMACEUTICAL COMPOSITION AND METHOD FOR TREATING AND/OR PREVENTING YTHDC1-RELATED DISEASES” (priority 2023, published 2026):

The compounds below were run against T1, GST-YTHDC1 (345-509) protein (Homo sapiens, UniProt Q96MU7) (assay: Fluorescence polarization-based in vitro enzyme-level test against YTHDC1). Settings: 30 nM GST-YTHDC1 (345-509), FAM-labeled m6A-modified single-stranded oligonucleotide, 18° C., 4 hours; read-out: IC50 (Inhibitory Activity against YTHDC1).
T1 construct: GST-YTHDC1 (345-509) protein
Format: binding

| SMILES | IC50 [nM] |
| --- | --- |
| CS(=O)(=O)c1ccccc1-c1nccc2[nH]c(C(=O)Nc3ccc(-c4ccccc4)cc3)cc12 [Compound 72] | 36500 |
| O=C(Nc1ccc(-c2cnco2)cc1)c1cc(C(=O)c2ccccc2N2CCCCC2)c[nH]1 [Compound 132] | 14 |
| O=C(Nc1ccc(-c2cncs2)cc1)c1cc2c(-c3ccncc3C(F)(F)F)nccc2[nH]1 [Compound 49] | > 50000 |
| O=C(Nc1ccc(-c2cncs2)cc1)c1cc2c(-c3ccc(C(F)(F)F)cc3C(F)(F)F)nccc2[nH]1 [Compound 48] | > 50000 |
| O=C(Nc1ccc(-c2cnco2)cc1)c1cc(C(=O)c2ccccc2N2CCC(c3ccccc3)C2)c[nH]1 (stereo not shown) [Compound 151] | 1560 |
| O=C(Nc1ccc(-c2cncs2)cc1)c1cc2c(-c3ccccc3CO)nccc2[nH]1 [Compound 45] | > 50000 |
| O=C(Nc1ccc(-c2cnc(N3CCN(C4COC4)CC3)o2)cc1)c1cc(C(=O)c2ccccc2C(F)(F)F)c[nH]1 [Compound 88] | 71.2 |
| C[C@@H]1CN(c2ccccc2C(=O)c2c[nH]c(C(=O)Nc3ccc(-c4cnco4)cc3)c2)C[C@H](C)O1 [Compound 147] | 190 |
| C[C@H]1CN(c2ccccc2C(=O)c2c[nH]c(C(=O)Nc3ccc(-c4cnco4)cc3)c2)C[C@H](C)O1 [Compound 149] | 41 |
| CCc1ccccc1C(=O)c1c[nH]c(C(=O)Nc2cccnc2)c1 [Compound 11] | 1570 |
| CC1(C)CN(c2ccccc2C(=O)c2c[nH]c(C(=O)Nc3ccc(-c4cnco4)cc3)c2)CCO1 [Compound 150] | 84 |
| CC(C)(C)OC(=O)N1CCN(c2ncc(-c3ccc(NC(=O)c4cc(C(=O)C5C=CC=CC5Br)c[nH]4)cc3)o2)CC1 (stereo not shown) [Compound 84] | > 50000 |
| O=C(Nc1ccc(-c2cncs2)cc1)c1cc2c(-c3ccccc3OC(F)(F)F)nccc2[nH]1 [Compound 44] | 138 |
| O=C(Nc1ccc(-c2cnc(N3CCN(C4COC4)CC3)o2)cc1)c1cc(C(=O)c2ccccc2Br)c[nH]1 [Compound 85] | 234 |
| O=C(Nc1ccc(-c2cnco2)cc1)c1cc(C(=O)c2ccccc2CCCCO)c[nH]1 [Compound 143] | 9 |
| O=C(Nc1ccc(-c2cnc(N3CCN(S(=O)(=O)C4CC4)CC3)o2)cc1)c1cc(C(=O)C2C=CC=CC2Br)c[nH]1 (stereo not shown) [Compound 87] | 2320 |
| O=C(Nc1ccc(-c2cnco2)cc1)c1cc(C(=O)c2ccccc2N2CC3(CCC3)C2)c[nH]1 [Compound 144] | 48 |
| C[C@H]1CN(c2ccccc2C(=O)c2c[nH]c(C(=O)Nc3ccc(-c4cnco4)cc3)c2)CCO1 [Compound 148] | 66 |
| CCSc1ccccc1-c1nccc2[nH]c(C(=O)Nc3ccc(-c4cncs4)cc3)cc12 [Compound 68] | 1670 |
| CN(CCO)c1cc(NC(=O)c2cc(C(=O)c3ccccc3C(F)(F)F)c[nH]2)ccc1-c1cnco1 [Compound 99] | 258 |
| CCN(CCNc1ncc(-c2ccc(NC(=O)c3cc(C(=O)c4ccccc4C(F)(F)F)c[nH]3)cc2)o1)C(=O)OC(C)(C)C [Compound 76] | 5040 |
| CS(=O)(=O)c1ccccc1-c1nccc2[nH]c(C(=O)Nc3ccc(-c4cncnc4)cc3)cc12 [Compound 74] | > 50000 |
| O=C(Nc1ccc(-c2cncs2)cc1)c1cc2c(-c3c[nH]nc3C(F)(F)F)nccc2[nH]1 [Compound 54] | > 50000 |
| CN1CCN(c2ncc(-c3ccc(NC(=O)c4cc(C(=O)c5ccccc5C(F)(F)F)c[nH]4)cc3)o2)CC1 [Compound 79] | 88 |

| SMILES | IC50 [nM] |
| --- | --- |
| O=C(Nc1ccc(-c2cnc(N3CCCCC3)s2)cc1)c1cc(C(=O)c2ccccc2C(F)(F)F)c[nH]1 [Compound 37] | 335 |
| O=C(Nc1cccnc1)c1cc(C(=O)c2c(Br)ccc(F)c2F)c[nH]1 [Compound 4] | > 50000 |
| O=C(Nc1ccc(-c2cnc(N3CCN(CCO)CC3)o2)cc1)c1cc(C(=O)c2ccccc2Br)c[nH]1 [Compound 86] | 847 |
| O=C(Nc1ccc(-c2cncs2)cc1)c1cc2c(-c3ccccc3OC(F)(F)F)c(F)ccc2[nH]1 [Compound 59] | > 50000 |
| O=C(Nc1ccc(-c2cnco2)cc1)c1cc(C(=O)c2ccccc2N2CCCC2=O)c[nH]1 [Compound 121] | 25 |
| O=C(Nc1ccc(-c2cncs2)cc1)c1cc2c(-c3ccccc3)nccc2[nH]1 [Compound 47] | > 50000 |
| CS(=O)(=O)c1ccccc1-c1ncc(F)c2[nH]c(C(=O)Nc3ccc(-c4cncs4)cc3)cc12 [Compound 58] | 80 |
| COc1ccccc1C(=O)c1c[nH]c(C(=O)Nc2cccnc2)c1 [Compound 9] | 10600 |
| O=C(Nc1ccc(-c2cncs2)cc1)c1cc2c(ncn2-c2ccccc2C(F)(F)F)[nH]1 [Compound 42] | 180 |
| O=C(Nc1cccnc1)c1cc(C(=O)c2ccccc2F)c[nH]1 [Compound 7] | > 50000 |
| CC(=O)c1ccccc1-c1nccc2[nH]c(C(=O)Nc3ccc(-c4cncs4)cc3)cc12 [Compound 51] | > 50000 |
| O=C(Nc1ccc(-c2cncs2)cc1)c1cc2c(-c3ccccc3OC(F)F)nccc2[nH]1 [Compound 63] | 394 |
| O=C(Nc1ccc(-c2cnco2)cc1)c1cc(C(=O)c2ccccc2N2CCOCC2)c[nH]1 [Compound 138] | 20 |
| O=C(Nc1ccc(-c2cnco2)cc1)c1cc(C(=O)c2ccccc2N2CCCCCC2)c[nH]1 [Compound 140] | 134 |
| CS(=O)(=O)Nc1ccccc1-c1nccc2[nH]c(C(=O)Nc3ccc(-c4cncs4)cc3)cc12 [Compound 52] | 660 |
| O=C(Nc1ccc(-c2cnco2)cc1)c1cc(C(=O)c2ccccc2C2=CCCC2)c[nH]1 [Compound 142] | 25 |
| O=C(Nc1ccc(-c2cncs2)cc1)c1cc2c(-c3ccccc3[N+](=O)[O-])nccc2[nH]1 [Compound 55] | 278 |
| CC1CCN(c2ccccc2C(=O)c2c[nH]c(C(=O)Nc3ccc(-c4cnco4)cc3)c2)CC1 [Compound 125] | 13 |
| O=C(Nc1ccc(-c2cnc(N3CCOCC3)s2)cc1)c1cc(C(=O)c2ccccc2C(F)(F)F)c[nH]1 [Compound 38] | 17 |
| COCOc1cc(NC(=O)c2cc(C(=O)c3ccccc3C(F)(F)F)c[nH]2)ccc1-c1cnco1 [Compound 96] | 14.5 |
| CN(C)c1ncc(-c2ccc(NC(=O)c3cc4c(-c5ccccc5S(C)(=O)=O)nccc4[nH]3)cc2)o1 [Compound 71] | > 50000 |
| O=C(Nc1ccc(-c2cnco2)cc1)c1cc(C(=O)c2ccccc2N2CCC(F)C2)c[nH]1 (stereo not shown) [Compound 137] | 11 |
| CC(C)(C)c1ccccc1C(=O)c1c[nH]c(C(=O)Nc2cccnc2)c1 [Compound 10] | 2010 |

Next, values leading:

| IC50 [nM] | SMILES |
| --- | --- |
| 10 | O=C(Nc1ccc(-c2cnco2)cc1)c1cc(C(=O)c2ccccc2C(F)(F)F)c[nH]1 [Compound 28] |
| 9.7 | O=C(Nc1ccc(-c2cnco2)cc1)c1cc(C(=O)c2ccccc2C(F)(F)F)c[nH]1 [Compound 105] |
| 9 | O=C(Nc1ccc(-c2cnc(N3CCC3)o2)cc1)c1cc(C(=O)c2ccccc2C(F)(F)F)c[nH]1 [Compound 104] |
| 14 | O=C(Nc1ccc(-c2cnco2)cc1)c1cc(C(=O)c2ccccc2-c2ccccc2)c[nH]1 [Compound 152] |
| 98.7 | O=C(Nc1ccc2c(c1)OCc1ccccc1-2)c1cc(C(=O)c2ccccc2C(F)(F)F)c[nH]1 [Compound 83] |
| 118 | O=C(Nc1ccc(S(=O)(=O)Nc2ccccc2)cc1)c1cc(C(=O)c2ccccc2C(F)(F)F)c[nH]1 [Compound 123] |
| 367 | O=C(Nc1ccccc1)c1ccc(NC(=O)c2cc(C(=O)c3ccccc3C(F)(F)F)c[nH]2)cc1 [Compound 111] |
| 3.7 | COc1cc(NC(=O)c2cc(C(=O)c3ccccc3C(F)(F)F)c[nH]2)ccc1-c1cnco1 [Compound 90] |
| 12 | O=C(Nc1ccc(-c2ccncc2)cc1)c1cc(C(=O)c2ccccc2C(F)(F)F)c[nH]1 [Compound 24] |
| 71 | O=C(Nc1ccc(-c2ccccc2)cc1)c1cc(C(=O)c2ccccc2C(F)(F)F)c[nH]1 [Compound 21] |
| 11 | Cc1ncc(-c2ccc(NC(=O)c3cc(C(=O)c4ccccc4C(F)(F)F)c[nH]3)cc2)s1 [Compound 32] |
| 248 | O=C(Nc1cccc(F)c1)c1cc(C(=O)c2ccccc2C(F)(F)F)c[nH]1 [Compound 14] |
| 22 | O=C(Nc1ccc(-c2cnc(N3CC(F)C3)s2)cc1)c1cc(C(=O)c2ccccc2C(F)(F)F)c[nH]1 [Compound 34] |
| 64 | O=C(Nc1ccc(-c2ccsc2)cc1)c1cc(C(=O)c2ccccc2C(F)(F)F)c[nH]1 [Compound 26] |
| 120 | O=C(Nc1ccccc1)c1cc(C(=O)c2ccccc2C(F)(F)F)c[nH]1 [Compound 12] |
| ≥ 50000 | CC(C)(C)OC(=O)Nc1ccc(-c2ccc(NC(=O)c3cc(C(=O)c4ccccc4C(F)(F)F)c[nH]3)cc2)cc1 [Compound 116] |
| 42 | O=C(Nc1ccc(OC(F)(F)F)cc1)c1cc(C(=O)c2ccccc2C(F)(F)F)c[nH]1 [Compound 17] |
| 54 | O=C(Nc1ccc(C(F)(F)F)c(F)c1)c1cc(C(=O)c2ccccc2C(F)(F)F)c[nH]1 [Compound 113] |
| 105 | O=C(Nc1ccc(F)cc1)c1cc(C(=O)c2ccccc2C(F)(F)F)c[nH]1 [Compound 15] |
| 86 | O=C(Nc1ccc(-c2cncnc2)cc1)c1cc(C(=O)c2ccccc2C(F)(F)F)c[nH]1 [Compound 102] |
| 36 | O=C(Nc1ccc(-c2ccoc2)cc1)c1cc(C(=O)c2ccccc2C(F)(F)F)c[nH]1 [Compound 25] |
| 162 | CS(=O)(=O)c1ccc(NC(=O)c2cc(C(=O)c3ccccc3C(F)(F)F)c[nH]2)cc1 [Compound 100] |
| 39 | O=C(Nc1ccc(C(F)(F)F)cc1)c1cc(C(=O)c2ccccc2C(F)(F)F)c[nH]1 [Compound 18] |
| 14 | CCN(C)c1ncc(-c2ccc(NC(=O)c3cc(C(=O)c4ccccc4C(F)(F)F)c[nH]3)cc2)o1 [Compound 103] |
| 1770 | O=C(Nc1ccc(-c2ccc(N3CCCC3)cc2)cc1)c1cc(C(=O)c2ccccc2C(F)(F)F)c[nH]1 [Compound 106] |
| ≥ 50000 | COC(=O)c1cc(C(F)(F)F)ccc1NC(=O)c1cc(C(=O)c2ccccc2C(F)(F)F)c[nH]1 [Compound 117] |
